Test results published in ChEMBL document CHEMBL5104090, “Recent advances in the medicinal chemistry of carbonic anhydrase inhibitors” (Eur J Med Chem, 2021).
One block for each molecule: values may come before it.

How the values were obtained:
[1] = target: T1, Carbonic anhydrase 2 (Homo sapiens, UniProt P00918)
[2] = target: T2, Carbonic anhydrase 1 (Homo sapiens, UniProt P00915)
Target sequence in this assay (P00915 whole entry): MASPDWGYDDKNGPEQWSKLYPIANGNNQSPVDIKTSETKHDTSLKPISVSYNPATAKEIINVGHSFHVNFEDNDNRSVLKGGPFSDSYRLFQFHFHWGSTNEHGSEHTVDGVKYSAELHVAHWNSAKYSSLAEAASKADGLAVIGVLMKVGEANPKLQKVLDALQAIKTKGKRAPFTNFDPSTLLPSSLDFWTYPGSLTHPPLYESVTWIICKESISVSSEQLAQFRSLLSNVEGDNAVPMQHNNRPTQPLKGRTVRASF

[3] = target: Carbonic anhydrase 4 (Homo sapiens, UniProt P22748)
[4] = target: T3, Carbonic anhydrase 9 (Homo sapiens, UniProt Q16790)
[5] = target: T4, Carbonic anhydrase 12 (Homo sapiens, UniProt O43570)
[6] = target: T1, Carbonic anhydrase 2; remark: listed apart in the source
[7] = target: T2, Carbonic anhydrase 1; remark: listed apart in the source
Target sequence in this assay (P00915 whole entry): as above

[8] = target: T3, Carbonic anhydrase 9; remark: listed apart in the source
[9] = target: Carbonic anhydrase 7 (Homo sapiens, UniProt P43166)
[10] = target: T1, Carbonic anhydrase 2; remark: listed apart in the source
[11] = target: T2, Carbonic anhydrase 1; remark: listed apart in the source
Target sequence in this assay (P00915 whole entry): as above

[12] = target: T2, Carbonic anhydrase 1; remark: listed apart in the source
Target sequence in this assay (P00915 2-261 limits assumed): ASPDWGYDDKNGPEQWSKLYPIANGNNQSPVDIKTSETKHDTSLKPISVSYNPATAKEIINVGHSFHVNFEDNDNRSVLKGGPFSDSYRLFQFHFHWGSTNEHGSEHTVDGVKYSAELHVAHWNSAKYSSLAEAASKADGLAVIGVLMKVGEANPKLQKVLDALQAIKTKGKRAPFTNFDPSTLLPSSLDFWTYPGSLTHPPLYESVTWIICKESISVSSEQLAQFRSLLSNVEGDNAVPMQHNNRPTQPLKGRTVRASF

[13] = target: T1, Carbonic anhydrase 2; remark: listed apart in the source
[14] = target: T2, Carbonic anhydrase 1; remark: listed apart in the source
Target sequence in this assay (P00915 whole entry): as the sequence (P00915 whole entry) above

[15] = target: T4, Carbonic anhydrase 12; remark: listed apart in the source
[16] = target: T3, Carbonic anhydrase 9; remark: listed apart in the source
[17] = target: T3, Carbonic anhydrase 9; remark: listed apart in the source
[18] = system: HSC-3; test: cells; format: functional; settings: Homo sapiens, time 48 hrs
Description: Cytotoxicity against human HSC-3 cells assessed as cell growth inhibition measured after 48 hrs by MTT assay

[19] = system: Ca9-22; test: cells; format: functional; settings: Homo sapiens, time 48 hrs
Description: Cytotoxicity against human Ca9-22 cells assessed as cell growth inhibition measured after 48 hrs by MTT assay

[20] = system: HSC-2; test: cells; format: functional; settings: Homo sapiens, time 48 hrs
Description: Cytotoxicity against human HSC-2 cells assessed as cell growth inhibition measured after 48 hrs by MTT assay

[21] = system: HSC-4; test: cells; format: functional; settings: Homo sapiens, time 48 hrs
Description: Cytotoxicity against human HSC-4 cells assessed as cell growth inhibition measured after 48 hrs by MTT assay

[22] = target: T1, Carbonic anhydrase 2; remark: listed apart in the source
[23] = target: T2, Carbonic anhydrase 1; remark: listed apart in the source
Target sequence in this assay (P00915 whole entry): as above

[24] = target: T1, Carbonic anhydrase 2; remark: listed apart in the source

Chain of Carbonic anhydrase 7 (P43166 whole entry): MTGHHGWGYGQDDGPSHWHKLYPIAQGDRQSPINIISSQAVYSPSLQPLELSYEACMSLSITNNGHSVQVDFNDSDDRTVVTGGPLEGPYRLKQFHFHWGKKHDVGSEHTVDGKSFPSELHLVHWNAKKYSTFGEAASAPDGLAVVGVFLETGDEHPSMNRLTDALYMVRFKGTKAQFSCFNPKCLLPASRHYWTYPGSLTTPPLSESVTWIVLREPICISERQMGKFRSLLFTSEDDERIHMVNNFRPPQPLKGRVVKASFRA
T4 sequence (O43570 whole entry): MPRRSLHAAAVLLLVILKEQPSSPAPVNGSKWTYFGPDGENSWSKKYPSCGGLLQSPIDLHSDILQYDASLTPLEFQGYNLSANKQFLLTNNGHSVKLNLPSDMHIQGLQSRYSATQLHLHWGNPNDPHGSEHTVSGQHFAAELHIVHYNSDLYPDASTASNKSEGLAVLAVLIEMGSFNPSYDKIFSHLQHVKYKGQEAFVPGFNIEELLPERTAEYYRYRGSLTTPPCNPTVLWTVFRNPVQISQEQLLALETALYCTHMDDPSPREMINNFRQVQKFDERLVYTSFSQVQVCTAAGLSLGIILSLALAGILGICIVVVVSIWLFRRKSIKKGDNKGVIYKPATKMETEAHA
Chain of Carbonic anhydrase 4 (P22748 whole entry): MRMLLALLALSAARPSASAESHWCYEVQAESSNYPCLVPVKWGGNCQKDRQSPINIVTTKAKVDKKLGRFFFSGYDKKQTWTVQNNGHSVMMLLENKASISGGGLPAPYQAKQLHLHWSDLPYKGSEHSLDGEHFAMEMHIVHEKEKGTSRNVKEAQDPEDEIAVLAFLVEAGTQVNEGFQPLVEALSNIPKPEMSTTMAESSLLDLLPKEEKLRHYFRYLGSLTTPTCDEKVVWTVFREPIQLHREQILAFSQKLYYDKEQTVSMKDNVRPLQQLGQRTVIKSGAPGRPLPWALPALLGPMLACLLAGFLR

Ki [1]: 25.4 nM
Compound: NS(=O)(=O)c1ccc(CCn2c(SCC(=O)Nc3ccc(Cl)cc3)nc3ccccc3c2=O)cc1

Ki [2]: 9300 nM
Ki [1]: 0.48 nM
Ki [3]: 6.5 nM
Ki [4]: 0.21 nM
Compound: NS(=O)(=O)c1ccc(N/C=C/C(=O)c2ccc(F)cc2)cc1

IC50 [5]: > 360 nM
IC50 [6]: > 360 nM
IC50 [7]: > 360 nM
IC50 [8]: > 360 nM
Compound: Cn1c(-c2ccccc2)nc2cc(C(N)=O)ccc21

Compound: Fc1ccc([SeH])cc1
Ki [9]: 760 nM
Ki [4]: 180 nM

Ki [10]: 37.3 nM
Ki [11]: 24.2 nM
Compound: NS(=O)(=O)c1ccc(N2N=C(c3cccs3)CC2c2ccc(Cl)cc2)cc1 (configuration not stated)

Kis [12]: 84.3 nM
Compound: NS(=O)(=O)c1ccc(C(=O)NN2C(=O)C3CC=CCC3C2=O)cc1 (configuration not stated)

Ki [13]: 42.8 nM
Compound: CS(=O)(=O)Cc1c(Br)c(O)c(O)c(Br)c1Br

Compound: COc1cccc([SeH])c1
Ki [9]: 760 nM
Ki [4]: 280 nM

Ki [14]: > 100000 nM
Kis [15]: 0.3 µM
Ki [16]: 3100 nM
Compound: COc1ccc(/C=C2/SC(=O)N(CC(=O)O)C2=O)cc1

Kis [17]: 3 nM
Compound: NS(=O)(=O)c1ccc(C(=O)NN2C(=O)c3c(Br)c(Br)c(Br)c(Br)c3C2=O)cc1

Compound: COc1ccc(C2CC(c3ccc(F)cc3)=NN2c2ccc(S(N)(=O)=O)cc2)cc1OC (configuration not stated)
CC50 [18]: 15000 nM
CC50 [19]: 15000 nM
CC50 [20]: 15000 nM
CC50 [21]: 15000 nM

Kis [17]: 3 nM
Compound: NS(=O)(=O)c1ccc(C(=O)NN2C(=O)c3cccc4cc([N+](=O)[O-])cc(c34)C2=O)cc1

IC50 [5]: > 360 nM
IC50 [6]: > 360 nM
IC50 [7]: > 360 nM
IC50 [8]: > 360 nM
Compound: Cn1c(-c2ccc(Cl)cc2)nc2cc(C(=O)O)ccc21

Compound: COc1ccc(C2CC(c3ccc(Cl)cc3)=NN2c2ccc(S(N)(=O)=O)cc2)c(OC)c1 (configuration not stated)
CC50 [18]: 15000 nM
CC50 [19]: 15000 nM
CC50 [20]: 15000 nM
CC50 [21]: 15000 nM

Kis [17]: 3 nM
Compound: NS(=O)(=O)c1ccc(C(=O)NN2C(=O)c3c(Cl)c(Cl)c(Cl)c(Cl)c3C2=O)cc1

IC50 [5]: > 360 nM
IC50 [6]: > 360 nM
IC50 [7]: > 360 nM
IC50 [8]: > 360 nM
Compound: NS(=O)(=O)c1ccc2[nH]c(-c3ccccc3)nc2c1

IC50 [5]: > 360 nM
IC50 [6]: > 360 nM
IC50 [7]: > 360 nM
IC50 [8]: > 360 nM
Compound: Cn1c(-c2ccccc2)nc2cc(C(=O)O)ccc21

Compound: COc1ccccc1[SeH]
Ki [9]: 760 nM

Ki [13]: 51.1 nM
Compound: O=C1/C(=C\c2ccc(O)c(CN3CCN(c4ccccc4F)CC3)c2)Cc2ccccc21

Compound: COc1ccc(C2CC(c3ccccc3)=NN2c2ccc(S(N)(=O)=O)cc2)c(OC)c1 (configuration not stated)
CC50 [18]: 15000 nM
CC50 [19]: 15000 nM
CC50 [20]: 15000 nM
CC50 [21]: 15000 nM

Ki [13]: 51.1 nM
Compound: O=C1/C(=C\c2ccc(O)c(CN3CCN(c4ccccc4)CC3)c2)Cc2ccccc21

Ki [10]: 37.3 nM
Ki [11]: 24.2 nM
Compound: NS(=O)(=O)c1ccc(N2N=C(c3cccs3)CC2c2cccs2)cc1 (configuration not stated)

Ki [22]: 0.68 nM
Ki [23]: 1.06 nM
Compound: Cc1ccc(C)c(-n2nc(-c3ccccc3)c(/N=N/c3ccc(Br)cc3)c2-c2ccccc2)c1

Ki [22]: 0.68 nM
Ki [23]: 1.06 nM
Compound: O=[N+]([O-])c1ccccc1-n1nc(-c2ccccc2)c(/N=N/c2ccc(Br)cc2)c1-c1ccccc1

Ki [22]: 0.68 nM
Ki [23]: 1.06 nM
Compound: Cn1nc(-c2ccccc2)c(/N=N/c2ccc(Br)cc2)c1-c1ccccc1

Compound: COc1cc([SeH])cc(OC)c1OC
Ki [9]: > 50000 nM
Ki [2]: > 50000 nM
Ki [1]: > 50000 nM
Ki [4]: 180 nM

Compound: Cc1ccccc1[SeH]
Ki [9]: 760 nM

Ki [10]: 37.3 nM
Ki [11]: 24.2 nM
Compound: Cc1ccc(C2CC(c3cccs3)=NN2c2ccc(S(N)(=O)=O)cc2)cc1 (configuration not stated)

Ki [24]: 0.009 nM
Compound: NS(=O)(=O)c1ccc(C(=O)N[C@@H]2O[C@H](CO)[C@H](O)[C@H](O)[C@H]2O)cc1

Ki [2]: > 10000 nM
Ki [3]: 6.5 nM
Ki [4]: 0.21 nM
Compound: NS(=O)(=O)c1ccc(N/C=C/C(=O)c2ccc([N+](=O)[O-])cc2)cc1

Ki [22]: 0.68 nM
Ki [23]: 1.06 nM
Compound: Cc1ccc(-n2nc(-c3ccccc3)c(/N=N/c3ccc(Br)cc3)c2-c2ccccc2)cc1C

Ki [10]: 37.3 nM
Ki [11]: 24.2 nM
Compound: NS(=O)(=O)c1ccc(N2N=C(c3cccs3)CC2c2ccc(F)cc2)cc1 (configuration not stated)

Ki [14]: > 100000 nM
Kis [15]: 0.3 µM
Compound: O=C(O)CN1C(=O)S/C(=C/c2ccc(Br)cc2)C1=O

Kis [17]: 3 nM
Compound: NS(=O)(=O)c1ccc(C(=O)NN2C(=O)c3cccc4cccc(c34)C2=O)cc1

IC50 [5]: 9.9 nM
IC50 [6]: > 360 nM
IC50 [7]: > 360 nM
IC50 [8]: 6.6 nM
Compound: Cn1c(-c2ccccn2)nc2cc(S(N)(=O)=O)ccc21

Ki [10]: 37.3 nM
Ki [11]: 24.2 nM
Compound: COc1ccc(C2CC(c3cccs3)=NN2c2ccc(S(N)(=O)=O)cc2)c(OC)c1 (configuration not stated)
